Source: article PMC9516332 (Frontiers in Oncology, 2022)
Where two headings read alike, the source gives them in different places.

Columns and labels:
[1] = target: panel of 255 wild-type kinases (Homo sapiens, UniProt P22607); assay: Kinase panel profiling at 1 µmol/L (MSA or IMAP), percentage inhibition; format: biochemical; conditions: read-out: %-inhibition at 1 µmol/L, FGFR3
[2] = target: panel of 255 wild-type kinases (Homo sapiens, UniProt P00533); assay: as above; format: biochemical; conditions: read-out: %-inhibition at 1 µmol/L, EGFR
[3] = target: panel of 255 wild-type kinases (Homo sapiens, UniProt Q16654); assay: as above; format: biochemical; conditions: read-out: %-inhibition at 1 µmol/L, PDHK4
[4] = target: T1, panel of 255 wild-type kinases (Homo sapiens, UniProt O15146); assay: as above; format: biochemical; conditions: read-out: %-inhibition, MUSK
T1 sequence (O15146 24-869): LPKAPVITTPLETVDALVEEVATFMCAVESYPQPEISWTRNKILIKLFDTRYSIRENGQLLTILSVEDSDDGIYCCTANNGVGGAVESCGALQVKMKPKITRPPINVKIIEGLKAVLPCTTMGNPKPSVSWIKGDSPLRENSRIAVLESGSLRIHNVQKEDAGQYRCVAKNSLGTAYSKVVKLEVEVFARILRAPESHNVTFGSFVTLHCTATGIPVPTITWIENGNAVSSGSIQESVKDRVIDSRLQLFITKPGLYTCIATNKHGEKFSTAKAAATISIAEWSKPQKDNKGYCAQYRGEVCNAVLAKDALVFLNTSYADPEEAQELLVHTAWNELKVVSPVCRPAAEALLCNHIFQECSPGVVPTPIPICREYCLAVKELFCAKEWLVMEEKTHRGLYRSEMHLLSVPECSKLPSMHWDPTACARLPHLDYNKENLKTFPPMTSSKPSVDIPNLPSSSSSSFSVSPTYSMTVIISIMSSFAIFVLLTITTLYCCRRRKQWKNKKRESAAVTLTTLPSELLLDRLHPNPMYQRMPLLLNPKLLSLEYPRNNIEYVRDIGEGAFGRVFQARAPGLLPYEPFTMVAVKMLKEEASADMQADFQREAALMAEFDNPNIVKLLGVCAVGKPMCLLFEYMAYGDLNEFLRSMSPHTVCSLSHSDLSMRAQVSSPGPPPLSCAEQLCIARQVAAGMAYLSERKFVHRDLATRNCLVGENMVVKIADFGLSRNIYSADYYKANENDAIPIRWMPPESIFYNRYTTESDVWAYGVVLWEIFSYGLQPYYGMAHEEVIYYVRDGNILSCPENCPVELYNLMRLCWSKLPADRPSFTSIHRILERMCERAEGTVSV

[5] = target: panel of 255 wild-type kinases (Homo sapiens, UniProt Q9NYY3); assay: as above; format: biochemical; conditions: read-out: %-inhibition at 1 µmol/L, PLK2
[6] = target: panel of 255 wild-type kinases (Homo sapiens, UniProt P07332); assay: as above; format: biochemical; conditions: read-out: %-inhibition at 1 µmol/L, FES
[7] = target: T2, panel of 255 wild-type kinases (Homo sapiens, UniProt Q13470); conditions: cited from earlier work
T2 sequence (Q13470 1-666): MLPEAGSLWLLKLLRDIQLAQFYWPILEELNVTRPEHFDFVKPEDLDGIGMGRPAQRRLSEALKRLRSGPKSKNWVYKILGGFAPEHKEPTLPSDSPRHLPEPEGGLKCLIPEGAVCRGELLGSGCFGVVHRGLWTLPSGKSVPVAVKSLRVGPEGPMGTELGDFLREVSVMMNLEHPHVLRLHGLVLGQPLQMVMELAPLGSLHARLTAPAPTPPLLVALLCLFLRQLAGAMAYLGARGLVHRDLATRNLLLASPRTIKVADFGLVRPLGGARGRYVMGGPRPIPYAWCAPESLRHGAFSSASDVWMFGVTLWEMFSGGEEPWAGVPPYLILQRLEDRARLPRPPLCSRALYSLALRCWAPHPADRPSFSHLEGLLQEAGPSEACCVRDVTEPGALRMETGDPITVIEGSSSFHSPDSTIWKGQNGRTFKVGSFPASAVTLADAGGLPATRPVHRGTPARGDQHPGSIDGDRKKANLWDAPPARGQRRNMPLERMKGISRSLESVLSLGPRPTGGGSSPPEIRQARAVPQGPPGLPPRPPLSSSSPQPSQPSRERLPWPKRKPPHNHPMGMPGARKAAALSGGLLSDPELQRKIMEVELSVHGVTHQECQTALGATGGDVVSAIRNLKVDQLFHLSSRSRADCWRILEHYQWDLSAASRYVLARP

[8] = target: T1, panel of 255 wild-type kinases; conditions: cited from earlier work
[9] = kinase FGFR3, 1 µmol/L single concentration
[10] = kinase EGFR, 1 µmol/L single concentration
[11] = kinase PDHK4, 1 µmol/L single concentration
[12] = MUSK, 1 µmol/L single concentration
[13] = kinase PLK2, 1 µmol/L single concentration
[14] = kinase FES, 1 µmol/L single concentration

Row | Compound | inhibition at 1 µM [1, 9] [%] | inhibition at 1 µM [2, 10] [%] | inhibition at 1 µM [3, 11] [%] | inhibition at 1 µM [4, 12] [%] | inhibition at 1 µM [5, 13] [%] | inhibition at 1 µM [6, 14] [%] | IC50 (134 cancer cell lines) [µM] | inhibition at 1 µM [1] [%] | %-inhibition at 1 µmol/L, TNK1 ([7]; kinase TNK1, 1 µmol/L single concentration, ref DOI: 10.1158/1535-7163.MCT-18-0877) [%] | %-inhibition, MUSK ([8]; MUSK, 1 µmol/L single concentration, ref DOI: 10.1158/1535-7163.MCT-18-0877) [%] | %-inhibition at 1 µmol/L, TNK1 [7] [%] | %-inhibition, MUSK [8] [%] | inhibition at 1 µM [2] [%] | inhibition at 1 µM [3] [%] | inhibition at 1 µM [4] [%] | inhibition at 1 µM [5] [%] | inhibition at 1 µM [6] [%]
1 | CO[C@]1(C(=O)N[C@@H](C)c2ccc(-n3cc(F)cn3)nc2)CC[C@H](c2nc(C)cc(Nc3cc(C)[nH]n3)n2)CC1 [pralsetinib] | 96 | 48 | 12 | 73 | 6.54 | 8 | 2.64 |  |  |  |  |  |  |  |  |  | 
2 | COc1cc2ncnc(Nc3ccc(F)c(Cl)c3)c2cc1NC(=O)/C=C/CN1CCCCC1 [dacomitinib] | 26 | 103 | 3 | 22 | 5 | 1.56 | 0.018 |  |  |  |  |  |  |  |  |  | 
3 | CCn1c(=O)c(-c2cc(NC(=O)Nc3ccccc3)c(F)cc2Br)cc2cnc(NC)cc21 [ripretinib] | 52 | 10 | 4 | 11 | 6 | 23 |  |  |  |  |  |  |  |  |  |  | 
4 | Cc1nc(NC(=O)N2CCC[C@H]2C(N)=O)sc1-c1ccnc(C(C)(C)C(F)(F)F)c1 [alpelisib] | 3.39 | 2 | 0.0757 | -8 | 10 | -3.47 | 0.534 |  |  |  |  |  |  |  |  |  | 
5 | C=CC(=O)N1CCC([C@@H]2CCNc3c(C(N)=O)c(-c4ccc(Oc5ccccc5)cc4)nn32)CC1 [zanubrutinib] | 4.61 | 92 | 0.136 | -1.31 | 0.329 | 1.42 |  |  |  |  |  |  |  |  |  |  | 
6 | O=C(Nc1cnn2ccc(N3CCC[C@@H]3c3cc(F)ccc3F)nc12)N1CC[C@H](O)C1 [larotrectinib] |  | 5 | 2 | 32 | 2.14 | -1.07 | > 31.6 | 1.36 |  |  |  |  |  |  |  |  | 
7 | Cc1cc(Nc2ncnc3ccc(NC4=NC(C)(C)CO4)cc23)ccc1Oc1ccn2ncnc2c1 [tucatinib] | 2.63 | 95 | 7.57 | 2.26 | 7 | 1.74 | 6.88 |  |  |  |  |  |  |  |  |  | 
8 | CCc1cc2c(cc1N1CCC(N3CCOCC3)CC1)C(C)(C)c1[nH]c3cc(C#N)ccc3c1C2=O [alectinib] |  |  |  |  |  |  |  |  | 11 | 6 |  |  |  |  |  |  | 
9 | FC(F)(F)c1ccc(CNc2ccc(Cc3c[nH]c4ncc(Cl)cc34)cn2)cn1 [pexidartinib] | 68 |  | 4.63 | 33 | 7 | 27 | > 31.6 |  |  |  |  |  |  |  |  |  | 
10 | Cn1cnc2c(F)c(Nc3ccc(Br)cc3F)c(C(=O)NOCCO)cc21 [binimetinib] | 1.4 | 9 | -0.429 | -4.46 | -5 | 6 |  |  |  |  |  |  |  |  |  |  | 
11 | CN1CCN(c2ccc(C(=O)Nc3n[nH]c4ccc(Cc5cc(F)cc(F)c5)cc34)c(NC3CCOCC3)c2)CC1 [entrectinib] | 90 |  | 3.42 | 100 | 14 | 68 | 7.82 |  |  |  |  |  |  |  |  |  | 
12 | COc1cc(N2CCC(N3CCN(C)CC3)CC2)ccc1Nc1ncc(Cl)c(Nc2ccccc2P(C)(C)=O)n1 [brigatinib] |  |  |  |  |  |  |  |  |  |  | 101 | 82 |  |  |  |  | 
13 | COC(=O)N[C@@H](C)CNc1nccc(-c2cn(C(C)C)nc2-c2cc(Cl)cc(NS(C)(=O)=O)c2F)n1 [encorafenib] | 1 | 9 | -2.11 | -1.72 | -2.68 | 7 | 0.592 |  |  |  |  |  |  |  |  |  | 
14 | C[C@H]1Oc2cc(cnc2N)-c2c(nn(C)c2C#N)CN(C)C(=O)c2ccc(F)cc21 [lorlatinib] | -0.405 | 9.49 | -0.664 | 47 | 10 |  |  |  |  |  |  |  |  |  |  |  | 
15 | CCN1CCN(c2ccc(Nc3cc(N(C)C(=O)Nc4c(Cl)c(OC)cc(OC)c4Cl)ncn3)cc2)CC1 [infigratinib] | 102 |  | -1.46 | 24 | 3.65 | 20 | > 3.16 |  |  |  |  |  |  |  |  |  | 
16 | COc1ccc(CN2C3CC2CN(c2ccc(-c4cc(OCC(C)(C)O)cn5ncc(C#N)c45)cn2)C3)cn1 [selpercatinib] | 95 | 0.116 | -2.71 | 10 | 4 | 15 | 3.85 |  |  |  |  |  |  |  |  |  | 
17 | Cn1cnc2c(F)c(Nc3ccc(Br)cc3Cl)c(C(=O)NOCCO)cc21 [selumetinib] | 2.76 | 26 | 0.425 | 7 | 2.78 | -3.3 | 0.099 |  |  |  |  |  |  |  |  |  | 
18 | CCc1nc(C(N)=O)c(Nc2ccc(N3CCC(N4CCN(C)CC4)CC3)c(OC)c2)nc1NC1CCOCC1 [gilteritinib] | 76 | 85 | 3 | 99 | 4.71 | 76 | 0.237 |  |  |  |  |  |  |  |  |  | 
19 | CCN1C(=O)N(c2c(F)c(OC)cc(OC)c2F)Cc2cnc3[nH]c(CN4CCOCC4)cc3c21 [pemigatinib] | 100 | -2 | -4 | 2.72 | 0.757 | 1.55 |  |  |  |  |  |  |  |  |  |  | 
20 | Cn1cc(-c2cc3c(N4CCN(c5ncc([C@@](C)(N)c6ccc(F)cc6)cn5)CC4)ncnn3c2)cn1 [avapritinib] | 41 | 25 | 5.61 | 63 | 7 | 1.65 |  |  |  |  |  |  |  |  |  |  | 
21 | CNC(=O)c1ccc(-c2cnc3ncc(Cc4ccc5ncccc5c4)n3n2)cc1F [capmatinib] |  |  |  |  |  |  |  | 2 |  |  |  |  | 17 | 0.789 | 1.33 | 7 | -2
22 | C[C@H](Nc1ncnc2nc[nH]c12)c1cc2cccc(Cl)c2c(=O)n1-c1ccccc1 [duvelisib] | 0.29 | 6 | 3 | -4.45 | 13 | -0.806 | 4.24 |  |  |  |  |  |  |  |  |  | 
